The subject of the experiment is CD2F1 mice, L1210 leukemia ip, survival T/C. In words: NCI In Vivo Anticancer Drug Screen. Data for tumor model L1210 Leukemia (intraperitoneal) in CD2F1 (CDF1) mice. The following applies: higher = longer survival. A digest of the protocol:
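Mice carrying a transplanted tumor received test compound or vehicle alone. The value is the measurement in the treated group divided by that in the vehicle-treated control group.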

[1] abbreviates: endpoint: mean survival time, dose: 100.0 mg/kg/injection, schedule: Q04DX003 (ip), vehicle: saline with Tween-80.
Where [2] appears, read: endpoint: mean survival time, dose: 200.0 mg/kg/injection, schedule: Q04DX003 (ip), vehicle: saline with Tween-80.
Where [3] appears, read: endpoint: mean survival time, dose: 400.0 mg/kg/injection, schedule: Q04DX003 (ip), vehicle: saline with Tween-80.
The mark [4] stands for this setting: endpoint: median survival time, dose: 25.0 mg/kg/injection, schedule: Q01DX009 (ip), vehicle: saline with Tween-80.
Setting [5] is: endpoint: median survival time, dose: 50.0 mg/kg/injection, schedule: Q01DX009 (ip), vehicle: saline with Tween-80.
Where [6] appears, read: endpoint: median survival time, dose: 100.0 mg/kg/injection, schedule: Q01DX009 (ip), vehicle: saline with Tween-80.
The mark [7] stands for this setting: endpoint: mean survival time, dose: 100.0 mg/kg/injection, schedule: Q01DX009 (ip), vehicle: saline with Tween-80.
The mark [8] stands for this setting: endpoint: mean survival time, dose: 200.0 mg/kg/injection, schedule: Q01DX009 (ip), vehicle: saline with Tween-80.
The mark [9] stands for this setting: endpoint: mean survival time, dose: 400.0 mg/kg/injection, schedule: Q01DX009 (ip), vehicle: saline with Tween-80.
Setting [10] is: endpoint: mean survival time, dose: 100.0 mg/kg/injection, schedule: Q01DX001 (ip), vehicle: saline with Tween-80.
Where [11] appears, read: endpoint: mean survival time, dose: 25.0 mg/kg/injection, schedule: Q01DX009 (ip), vehicle: saline with Tween-80.
Where [12] appears, read: endpoint: median survival time, dose: 400.0 mg/kg/injection, schedule: Q01DX009 (ip), vehicle: saline with Tween-80.

Structures are written as SMILES. Where “and” joins values, the source holds several entries; their conditions need not be identical. Identical values can stand only once. Inconclusive results and toxic doses are left out.

With `CCC1(C)C(C#N)C(=O)NC(=O)C1C#N` (stereo not drawn), the T/C is, setting by setting: (endpoint: mean survival time, dose: 50.0 mg/kg/injection, schedule: Q01DX009 (ip), vehicle: saline sonified) 96 % of control; (endpoint: mean survival time, dose: 100.0 mg/kg/injection, schedule: Q01DX009 (ip), vehicle: saline sonified) 90 % of control; under setting [1], 100 % of control; under setting [2], 100 % of control.

On to `CCCCCCCCCCCCCCCCC/C=C1\CC(=O)OC1=O`, for which the T/C under setting [1] was 88 % of control.

In the case of `O=S(CS(=O)c1ccccc1)c1ccccc1` (stereo not drawn), the T/C under setting [1] was 100 % of control, the T/C under setting [2] is 109 % of control and the T/C under setting [3] was 105 % of control.

On to `CC(C)(CNC1CCCCC1)OC(=O)c1ccccc1`, for which the T/C reads like this: (endpoint: mean survival time, dose: 75.0 mg/kg/injection, schedule: Q01DX001 (ip), vehicle: saline) 105 % of control; (endpoint: mean survival time, dose: 150.0 mg/kg/injection, schedule: Q01DX001 (ip), vehicle: saline) 100 % of control.

Take `Cc1cc2c(Cl)ncnc2[nH]1`: the T/C runs as follows: (endpoint: median survival time, dose: 25.0 mg/kg/injection, schedule: Q01DX005 (ip), vehicle: saline) 95 % of control; (endpoint: median survival time, dose: 50.0 mg/kg/injection, schedule: Q01DX005 (ip), vehicle: saline) 90 % of control; (endpoint: median survival time, dose: 100.0 mg/kg/injection, schedule: Q01DX005 (ip), vehicle: saline) 101 % of control.

As to `COc1ccc(-c2cc(-c3ccccc3)n[nH]2)cc1`, the T/C is, setting by setting: under setting [1], 93 % of control; under setting [2], 97 % of control; under setting [3], 93 % of control.

As for `N#CC(=C=[N-])[n+]1ccccc1`, the T/C (endpoint: mean survival time, dose: 12.5 mg/kg/injection, schedule: Q04DX003 (ip), vehicle: Klucel (hydroxypropylcellulose) (HPC)) was 98 % of control and the T/C (endpoint: mean survival time, dose: 25.0 mg/kg/injection, schedule: Q04DX003 (ip), vehicle: Klucel (hydroxypropylcellulose) (HPC)) is 100 % of control.

As to `COC(=N)CC(=O)C(C)(C)C`, the T/C is, setting by setting: (endpoint: mean survival time, dose: 100.0 mg/kg/injection, schedule: Q01DX001 (ip), vehicle: other) 102 % of control; (endpoint: mean survival time, dose: 200.0 mg/kg/injection, schedule: Q01DX001 (ip), vehicle: other) 97 % of control; (endpoint: mean survival time, dose: 400.0 mg/kg/injection, schedule: Q01DX001 (ip), vehicle: other) 97 % of control.

`COc1cc(C(C)c2cc3c(cc2OCCO)OCO3)cc(OC)c1OC` (stereo not drawn): the T/C under setting [4] was 96 % of control and 106 % of control; the T/C under setting [5] is 106 % of control and 109 % of control; the T/C under setting [6] was 106 % of control and 110 % of control.

Regarding `O=Cc1c[nH]c2ccc(Br)cc12`, the T/C (endpoint: mean survival time, dose: 100.0 mg/kg/injection, schedule: Q01DX009 (ip), vehicle: saline) is 105 % of control; the T/C (endpoint: mean survival time, dose: 200.0 mg/kg/injection, schedule: Q01DX009 (ip), vehicle: saline) is 113 % of control; the T/C (endpoint: mean survival time, dose: 400.0 mg/kg/injection, schedule: Q01DX009 (ip), vehicle: saline) is 100 % of control.

`[Br][Pt+2][Br].[NH-]c1cccc(F)c1.[NH-]c1cccc(F)c1`: the T/C was 97 % of control (endpoint: mean survival time, dose: 3.13 mg/kg/injection, schedule: Q04DX003 (ip), vehicle: distilled water + Tween-80); 103 % of control (endpoint: mean survival time, dose: 6.25 mg/kg/injection, schedule: Q04DX003 (ip), vehicle: distilled water + Tween-80); 101 % of control (endpoint: mean survival time, dose: 12.5 mg/kg/injection, schedule: Q04DX003 (ip), vehicle: distilled water + Tween-80); 104 % of control (endpoint: mean survival time, dose: 25.0 mg/kg/injection, schedule: Q04DX003 (ip), vehicle: distilled water + Tween-80); 109 % of control (endpoint: mean survival time, dose: 50.0 mg/kg/injection, schedule: Q04DX003 (ip), vehicle: distilled water + Tween-80); 107 % of control (endpoint: mean survival time, dose: 100.0 mg/kg/injection, schedule: Q04DX003 (ip), vehicle: distilled water + Tween-80).

Turning to `O=C(CCl)Nc1cc(Cl)c(Cl)cc1Cl`, the T/C by setting is: under setting [7], 97 % of control; under setting [8], 94 % of control; under setting [9], 102 % of control.

Take `COc1cc2c(cc1OC)C(CCN)NCC2` (stereo not drawn): the T/C runs as follows: under setting [10], 97 % of control; (endpoint: mean survival time, dose: 200.0 mg/kg/injection, schedule: Q01DX001 (ip), vehicle: saline with Tween-80) 100 % of control; (endpoint: mean survival time, dose: 400.0 mg/kg/injection, schedule: Q01DX001 (ip), vehicle: saline with Tween-80) 94 % of control.

In the case of `CC(=O)CC(C)=O.CC(=O)CC(C)=O.[Pd]`, the T/C is, setting by setting: (endpoint: mean survival time, dose: 6.25 mg/kg/injection, schedule: Q04DX002 (ip), vehicle: saline with Tween-80) 96 % of control; (endpoint: mean survival time, dose: 12.5 mg/kg/injection, schedule: Q04DX002 (ip), vehicle: saline with Tween-80) 87 % of control.

In the case of `CC(Oc1ccccc1)C(=O)c1ccccc1` (stereo not drawn), the T/C is 93 % of control under setting [7]; 97 % of control under setting [1]; 93 % of control under setting [8]; 100 % of control under setting [2]; 96 % of control under setting [9]; 90 % of control under setting [3].

In the case of `Nc1ncnc2nc(-c3ccc(C[P+](c4ccccc4)(c4ccccc4)c4ccccc4)cc3)[nH]c12`, the T/C under setting [1] was 101 % of control, the T/C under setting [2] is 95 % of control and the T/C under setting [3] is 101 % of control.

Turning to `c1ccc2c3c([nH]c2c1)CN1CCNCC1C3` (stereo not drawn), the T/C runs as follows: (endpoint: mean survival time, dose: 6.25 mg/kg/injection, schedule: Q01DX009 (ip), vehicle: saline with Tween-80) 98 % of control; (endpoint: mean survival time, dose: 12.5 mg/kg/injection, schedule: Q01DX009 (ip), vehicle: saline with Tween-80) 100 % of control; under setting [11], 100 % of control.

Turning to `O=[N+]([O-])c1cccc(N=Nn2cccc2)c1`, the T/C is 86 % of control under setting [11]; 106 % of control (endpoint: mean survival time, dose: 50.0 mg/kg/injection, schedule: Q01DX009 (ip), vehicle: saline with Tween-80); 98 % of control under setting [10]; 102 % of control under setting [7].

As for `Nc1ccc2ccc(NS(=O)(=O)N3CCCCC3)cc2c1`, the T/C by setting is: under setting [4], 118 % of control and 101 % of control and 106 % of control; under setting [5], 100 % of control and 109 % of control and 112 % of control; under setting [6], 114 % of control and 118 % of control and 119 % of control; under setting [12], 182 % of control.

Take `CCCCCCC(=O)CC(SCC)c1ccccc1Cl` (stereo not drawn): the T/C under setting [4] was 100 % of control; the T/C under setting [5] was 104 % of control; the T/C under setting [6] is 100 % of control; the T/C (endpoint: median survival time, dose: 200.0 mg/kg/injection, schedule: Q01DX009 (ip), vehicle: saline with Tween-80) was 97 % of control; the T/C under setting [12] is 98 % of control.

Take `COC1OC(COC(C)=O)C(n2cnc3c2c(=O)n(C)c(=O)n3C)C=C1NC(C)=O` (stereo not drawn): the T/C is 94 % of control (endpoint: mean survival time, dose: 12.5 mg/kg/injection, schedule: Q01DX005 (ip), vehicle: distilled water + Tween-80); 96 % of control (endpoint: mean survival time, dose: 25.0 mg/kg/injection, schedule: Q01DX005 (ip), vehicle: distilled water + Tween-80); 90 % of control (endpoint: mean survival time, dose: 50.0 mg/kg/injection, schedule: Q01DX005 (ip), vehicle: distilled water + Tween-80); 94 % of control (endpoint: mean survival time, dose: 100.0 mg/kg/injection, schedule: Q01DX005 (ip), vehicle: distilled water + Tween-80); 108 % of control (endpoint: mean survival time, dose: 200.0 mg/kg/injection, schedule: Q01DX005 (ip), vehicle: distilled water + Tween-80).

Regarding `CN1c2ccccc2N(C)c2ccccc21`, the T/C runs as follows: under setting [7], 94 % of control; under setting [1], 101 % of control; under setting [2], 98 % of control; under setting [3], 96 % of control.

For the molecule `CC(C)N1CCOCC1`, the T/C (endpoint: mean survival time, dose: 100.0 mg/kg/injection, schedule: Q04DX003 (ip), vehicle: acetone) was 100 % of control.

With `O=C1CC[C@H](NC(=O)OCc2ccccc2)C(=O)O1`, the T/C is, setting by setting: under setting [7], 88 % of control; under setting [8], 90 % of control; under setting [9], 88 % of control.

With `O=C1c2cccc(O)c2C(=O)c2c(O)cc(CO)cc21`, the T/C was 96 % of control (endpoint: mean survival time, dose: 1.25 mg/kg/injection, schedule: Q01DX009 (ip), vehicle: other); 102 % of control (endpoint: mean survival time, dose: 2.5 mg/kg/injection, schedule: Q01DX009 (ip), vehicle: other); 96 % of control (endpoint: mean survival time, dose: 5.0 mg/kg/injection, schedule: Q01DX009 (ip), vehicle: other); 102 % of control (endpoint: mean survival time, dose: 10.0 mg/kg/injection, schedule: Q01DX009 (ip), vehicle: other).

Take `CSc1nc(NC2OC(CO)C(O)C(O)C2O)c(Br)c(=O)[nH]1` (stereo not drawn): the T/C was 101 % of control (endpoint: median survival time, dose: 12.5 mg/kg/injection, schedule: Q01DX005 (ip), vehicle: saline with Tween-80); 101 % of control (endpoint: median survival time, dose: 25.0 mg/kg/injection, schedule: Q01DX005 (ip), vehicle: saline with Tween-80); 100 % of control (endpoint: median survival time, dose: 50.0 mg/kg/injection, schedule: Q01DX005 (ip), vehicle: saline with Tween-80); 101 % of control (endpoint: median survival time, dose: 100.0 mg/kg/injection, schedule: Q01DX005 (ip), vehicle: saline with Tween-80); 100 % of control (endpoint: median survival time, dose: 200.0 mg/kg/injection, schedule: Q01DX005 (ip), vehicle: saline with Tween-80).

The record behind these values is PubChem BioAssay AID256 (DTP/NCI, 2004).
